Laboratory results taken from USRE48461E1, “Modulation of androgen receptor expression” (Ionis Pharmaceuticals, Inc., priority 2012, dated 2021).

Key:
[1] = system: AR mRNA; test: AR mRNA levels in LMR20 cells (with/without DHT or R1881); type: cell-based, human; settings: with or without DHT/R1881
Method: LMR20 cells were plated at 1,500 cells per well in phenol red-free medium with CSS.

[2] = system: 22RV1 cells; test: 22RV1 cell proliferation, ASO in combination with MDV3100 (Example 22); type: cell-based, human; settings: for Proliferation (% untreated control) in 22RV1 without MDV-3100: RNAiMAX, 3 days
Method: 22RV1 cells were plated at 2,000 cells per well in 5% CSS medium for 48 hours. […] ISIS 549148 was included as a negative control. […] After a treatment period of 3 days, the proliferative capacity of the cancer cells was measured with CellTiter 96® AQueous One Solution Cell Proliferation kit (Promega), following the manufacturer's instructions. Results are presented in Tables 58-62 as percent inhibition of proliferation, relative to non-treated cells.

[3] = system: TMPRSS2 mRNA; test: TMPRSS2 expression in C4-2B cells (Example 30); type: cell-based, human; settings: 48 hrs
Method: Cells were plated at 1,000 cells per well. […] ISIS 549148 was included as a negative control. […] After an incubation period of 48 hrs, RNA levels of AR, PSA and TMPRSS2 were measured.
Cells were plated at 2,000 cells per well and cultured in CSS media with 1 nM DHT. […] ISIS 549148 was included as a negative control. […] After an incubation period of 48 hrs, RNA levels of AR, PSA and TMPRSS2 were measured. In the absence of DHT, AR expression in C4-2 cells was 188%, PSA expression was 43% and TMPRSS2 expression was 27% compared to the untreated control.

[4] = system: full length AR mRNA; test: Full-length AR RNA in 22RV1 cells (complete, CSS+DHT medium); type: cell-based, human; settings: RNAiMax, 48 hrs
Method: (§1) Cells were plated at 1,000 cells per well. […] After an incubation period of 48 hrs, RNA levels of full length AR, the V7 variant, PSA and TMPRSS2 were measured.
(§2) After an incubation period of 48 hrs, RNA levels of full length AR, the V7 variant, PSA and TMPRSS2 were measured.
(§3) Cells were plated at 2,000 cells per well and cultured in CSS media for 16 hours. […] After 4 hrs, 1 nM DHT was added. […] After an incubation period of 48 hrs, RNA levels of AR, AR V7 variant, PSA and TMPRSS2 were measured.

[5] = system: AR V7 variant mRNA; test: AR V7 variant RNA in 22RV1 cells; type: cell-based, human; settings: RNAiMax, 48 hrs
[6] = system: PSA mRNA; test: PSA expression in 22RV1 cells; type: cell-based, human; settings: RNAiMax, 48 hrs
Method: as §1, §2, §3

[7] = system: TMPRSS2 mRNA; test: TMPRSS2 expression in 22RV1 cells; type: cell-based, human; settings: RNAiMax, 48 hrs
Method: as §1, §2, §3

[8] = cynomolgus monkey, in vivo, sc, 40 mg/kg
Method: Prior to the study, the monkeys were kept in quarantine for a 30-day period, during which the animals were observed daily for general health. The monkeys were 2-4 years old and weighed between 2 and 4 kg. Thirteen groups of four randomly assigned male cynomolgus monkeys each were injected subcutaneously with ISIS oligonucleotide or PBS. PBS solution or ISIS oligonucleotides, at a dose of 40 mg/kg, were administered with a loading regimen consisting of four doses on the first week of the study (days 1, 3, 5, and 7), followed by a maintenance regimen consisting of once weekly administration starting on Day 14 (weeks 2 to 6). Subcutaneous injections were performed in clock-wise rotations at 4 sites on the back; one site per dose. The injection sites were delineated by tattoo, while sedated using ketamine, and were separated by a minimum of 3 cm.
To evaluate the effect of ISIS oligonucleotides on the overall health of the animals, body and organ weights were measured.

[9] = cynomolgus monkey, in vivo, sc, 40 mg/kg; remark: listed apart in the source

TGATTTAATGGTTGCA [ISIS 569236] (cEt/MOE gapmer chemistry, further chemistry not given here)
AR mRNA levels in LMR20 cells [1]: reduced AR mRNA levels in LMR20 cells, treated with or without either AR agonist, in a dose dependent manner relative to the baseline
synergy with MDV3100 ([2]; 22RV1 cells): synergistic with MDV3100
inhibited cell proliferation, ASO alone ([2]; 22RV1 cells, ASO alone at 1.0 μM): 17%
cell proliferation inhibited, combination ([2]; 22RV1 cells, ISIS 569236 (1.0 μM as printed) in combination with 1.0 μM MDV3100): 30%
Proliferation (% untreated control) in 22RV1 cells with 0.04 μM MDV-3100 ([2]; ASO dose 0.4 nM + 0.04 μM MDV-3100): 83 % untreated control
Proliferation (% untreated control) in 22RV1 cells with 0.2 μM MDV-3100 ([2]; ASO dose 0.4 nM + 0.2 μM MDV-3100): 93 % untreated control
Proliferation (% untreated control) in 22RV1 cells with 1.0 μM MDV-3100 ([2]; ASO dose 0.4 nM + 1.0 μM MDV-3100): 79 % untreated control
Proliferation (% untreated control) in 22RV1 cells with 5.0 μM MDV-3100 ([2]; ASO dose 0.4 nM + 5.0 μM MDV-3100): 82 % untreated control
Proliferation (% untreated control) in 22RV1 without MDV-3100 ([2]; ASO dose 0.4 nM): 97 % untreated control
Proliferation (% untreated control) in 22RV1 cells with 0.04 μM MDV-3100 ([2]; ASO dose 1.34 nM + 0.04 μM MDV-3100): 70 % untreated control
Proliferation (% untreated control) in 22RV1 cells with 0.2 μM MDV-3100 ([2]; ASO dose 1.34 nM + 0.2 μM MDV-3100): 77 % untreated control
Proliferation (% untreated control) in 22RV1 cells with 1.0 μM MDV-3100 ([2]; ASO dose 1.34 nM + 1.0 μM MDV-3100): 70 % untreated control
Proliferation (% untreated control) in 22RV1 cells with 5.0 μM MDV-3100 ([2]; ASO dose 1.34 nM + 5.0 μM MDV-3100): 72 % untreated control
Proliferation (% untreated control) in 22RV1 without MDV-3100 ([2]; ASO dose 1.34 nM): 83 % untreated control
Proliferation (% untreated control) in 22RV1 cells with 0.04 μM MDV-3100 ([2]; ASO dose 4.0 nM + 0.04 μM MDV-3100): 61 % untreated control
Proliferation (% untreated control) in 22RV1 cells with 0.2 μM MDV-3100 ([2]; ASO dose 4.0 nM + 0.2 μM MDV-3100): 60 % untreated control
Proliferation (% untreated control) in 22RV1 cells with 1.0 μM MDV-3100 ([2]; ASO dose 4.0 nM + 1.0 μM MDV-3100): 52 % untreated control
Proliferation (% untreated control) in 22RV1 cells with 5.0 μM MDV-3100 ([2]; ASO dose 4.0 nM + 5.0 μM MDV-3100): 52 % untreated control
Proliferation (% untreated control) in 22RV1 without MDV-3100 ([2]; ASO dose 4.0 nM): 69 % untreated control
Proliferation (% untreated control) in 22RV1 cells with 0.04 μM MDV-3100 ([2]; ASO dose 13.4 nM + 0.04 μM MDV-3100): 24 % untreated control
Proliferation (% untreated control) in 22RV1 cells with 0.2 μM MDV-3100 ([2]; ASO dose 13.4 nM + 0.2 μM MDV-3100): 20 % untreated control
Proliferation (% untreated control) in 22RV1 cells with 1.0 μM MDV-3100 ([2]; ASO dose 13.4 nM + 1.0 μM MDV-3100): 18 % untreated control
Proliferation (% untreated control) in 22RV1 cells with 5.0 μM MDV-3100 ([2]; ASO dose 13.4 nM + 5.0 μM MDV-3100): 24 % untreated control
Proliferation (% untreated control) in 22RV1 without MDV-3100 ([2]; ASO dose 13.4 nM): 37 % untreated control
Percent inhibition of TMPRSS2 expression ([3]; CSS + DHT medium, 0.04 μM): 0%
Percent inhibition of TMPRSS2 expression ([3]; CSS + DHT medium, 0.2 μM): 6%
Percent inhibition of TMPRSS2 expression ([3]; CSS + DHT medium, 1 μM): 43%
Percent inhibition of TMPRSS2 expression ([3]; CSS + DHT medium, 5.0 μM): 59%
Percent inhibition of TMPRSS2 expression ([3]; complete medium, 0.04 μM): 33%
Percent inhibition of TMPRSS2 expression ([3]; complete medium, 0.2 μM): 59%
Percent inhibition of TMPRSS2 expression ([3]; complete medium, 1 μM): 69%
Percent inhibition of TMPRSS2 expression ([3]; complete medium, 5.0 μM): 73%
Percent inhibition of full-length AR ([4]; CSS + DHT medium, 1.34 nM): 59%
Percent inhibition of full-length AR ([4]; CSS + DHT medium, 4.0 nM): 89%
Percent inhibition of full-length AR ([4]; CSS + DHT medium, 13.4 nM): 97%
Percent inhibition of full-length AR ([4]; complete medium, 1.34 nM): 17%
Percent inhibition of full-length AR ([4]; complete medium, 4.0 nM): 15%
Percent inhibition of full-length AR ([4]; complete medium, 13.4 nM): 37%
Percent inhibition of full-length AR ([4]; complete medium, 40 nM): 71%
Percent inhibition of AR V7 variant ([5]; CSS + DHT medium, 1.34 nM): 54%
Percent inhibition of AR V7 variant ([5]; CSS + DHT medium, 4.0 nM): 88%
Percent inhibition of AR V7 variant ([5]; CSS + DHT medium, 13.4 nM): 97%
Percent inhibition of AR V7 variant ([5]; complete medium, 1.34 nM): 30%
Percent inhibition of AR V7 variant ([5]; complete medium, 4.0 nM): 2%
Percent inhibition of AR V7 variant ([5]; complete medium, 13.4 nM): 46%
Percent inhibition of AR V7 variant ([5]; complete medium, 40 nM): 81%
Percent inhibition of PSA expression ([6]; CSS + DHT medium, 1.34 nM): 28%
Percent inhibition of PSA expression ([6]; CSS + DHT medium, 4.0 nM): 49%
Percent inhibition of PSA expression ([6]; CSS + DHT medium, 13.4 nM): 70%
Percent inhibition of PSA expression ([6]; complete medium, 1.34 nM): 0%
Percent inhibition of PSA expression ([6]; complete medium, 4.0 nM): 17%
Percent inhibition of PSA expression ([6]; complete medium, 13.4 nM): 25%
Percent inhibition of PSA expression ([6]; complete medium, 40 nM): 7%
Percent inhibition of TMPRSS2 expression ([7]; CSS + DHT medium, 1.34 nM): 27%
Percent inhibition of TMPRSS2 expression ([7]; CSS + DHT medium, 4.0 nM): 50%
Percent inhibition of TMPRSS2 expression ([7]; CSS + DHT medium, 13.4 nM): 75%
Percent inhibition of TMPRSS2 expression ([7]; complete medium, 1.34 nM): 0%
Percent inhibition of TMPRSS2 expression ([7]; complete medium, 4.0 nM): 13%
Percent inhibition of TMPRSS2 expression ([7]; complete medium, 13.4 nM): 21%
Percent inhibition of TMPRSS2 expression ([7]; complete medium, 40 nM): 36%
Body Wt [8]: 2.4 kg
Heart weight [8]: 8.4 g
Kidney weight [8]: 12 g
Liver weight [8]: 56 g
Mesenteric lymph nodes weight [8]: 2.4 g
Spleen weight [8]: 3.2 g
ALT [9]: 35 IU/L
AST [9]: 45 IU/L
Albumin [9]: 4.1 g/dL
